Laboratory results as given in ChEMBL document CHEMBL4507320, “Data for DCP probe NVS-MALT1” (2021).

Legend:
[1] = molecular target: 5'-AMP-activated protein kinase catalytic subunit alpha-1 (Homo sapiens) (UniProt Q13131); conditions: Compound concentration 1000.0 nM
[2] = molecular target: Mitogen-activated protein kinase kinase kinase 5 (Homo sapiens) (UniProt Q99683); conditions: Compound concentration 1000.0 nM
[3] = molecular target: Protein-tyrosine kinase 6 (Homo sapiens) (UniProt Q13882); conditions: Compound concentration 1000.0 nM
[4] = molecular target: Calcium/calmodulin-dependent protein kinase type 1 (Homo sapiens) (UniProt Q14012); conditions: Compound concentration 1000.0 nM
[5] = molecular target: Calcium/calmodulin-dependent protein kinase type 1B (Homo sapiens) (UniProt Q6P2M8); conditions: Compound concentration 1000.0 nM
[6] = molecular target: Cyclin-dependent kinase 7 (Homo sapiens) (UniProt P50613); conditions: Compound concentration 1000.0 nM
[7] = molecular target: Cyclin-dependent kinase-like 3 (Homo sapiens) (UniProt Q8IVW4); conditions: Compound concentration 1000.0 nM
[8] = molecular target: Cyclin-dependent kinase-like 5 (Homo sapiens) (UniProt O76039); conditions: Compound concentration 1000.0 nM
[9] = molecular target: Death-associated protein kinase 1 (Homo sapiens) (UniProt P53355); conditions: Compound concentration 1000.0 nM
[10] = molecular target: Dual specificity tyrosine-phosphorylation-regulated kinase 1B (Homo sapiens) (UniProt Q9Y463); conditions: Compound concentration 1000.0 nM
[11] = molecular target: Ephrin type-A receptor 7 (Homo sapiens) (UniProt Q15375); conditions: Compound concentration 1000.0 nM
[12] = molecular target: Ephrin type-A receptor 8 (Homo sapiens) (UniProt P29322); conditions: Compound concentration 1000.0 nM
[13] = molecular target: Ephrin type-B receptor 6 (Homo sapiens) (UniProt O15197); conditions: Compound concentration 1000.0 nM
[14] = molecular target: Receptor tyrosine-protein kinase erbB-3 (Homo sapiens) (UniProt P21860); conditions: Compound concentration 1000.0 nM
[15] = molecular target: Fibroblast growth factor receptor 4 (Homo sapiens) (UniProt P22455); conditions: Compound concentration 1000.0 nM
[16] = molecular target: Homeodomain-interacting protein kinase 2 (Homo sapiens) (UniProt Q9H2X6); conditions: Compound concentration 1000.0 nM
[17] = molecular target: Mitogen-activated protein kinase kinase kinase kinase 1 (Homo sapiens) (UniProt Q92918); conditions: Compound concentration 1000.0 nM
[18] = molecular target: Mitogen-activated protein kinase 9 (Homo sapiens) (UniProt P45984); conditions: Compound concentration 1000.0 nM
[19] = tested on: Mast/stem cell growth factor receptor Kit (Homo sapiens), P10721 [L576P]; conditions: Compound concentration 1000.0 nM
[20] = tested on: Mast/stem cell growth factor receptor Kit (Homo sapiens), P10721 [V559D,T670I]; conditions: Compound concentration 1000.0 nM
[21] = molecular target: Serine/threonine-protein kinase 10 (Homo sapiens) (UniProt O94804); conditions: Compound concentration 1000.0 nM
[22] = molecular target: Mitogen-activated protein kinase kinase kinase 3 (Homo sapiens) (UniProt Q99759); conditions: Compound concentration 1000.0 nM
[23] = molecular target: MAP/microtubule affinity-regulating kinase 4 (Homo sapiens) (UniProt Q96L34); conditions: Compound concentration 1000.0 nM
[24] = molecular target: Mitogen-activated protein kinase kinase kinase 11 (Homo sapiens) (UniProt Q16584); conditions: Compound concentration 1000.0 nM
[25] = molecular target: Serine/threonine-protein kinase 24 (Homo sapiens) (UniProt Q9Y6E0); conditions: Compound concentration 1000.0 nM
[26] = molecular target: Serine/threonine-protein kinase 38 (Homo sapiens) (UniProt Q15208); conditions: Compound concentration 1000.0 nM
[27] = molecular target: Serine/threonine-protein kinase PAK 1 (Homo sapiens) (UniProt Q13153); conditions: Compound concentration 1000.0 nM
[28] = molecular target: Cyclin-dependent kinase 2 homolog (Plasmodium falciparum (isolate 3D7)) (UniProt P61075); conditions: Compound concentration 1000.0 nM
[29] = molecular target: cAMP-dependent protein kinase catalytic subunit alpha (Homo sapiens) (UniProt P17612); conditions: Compound concentration 1000.0 nM
[30] = molecular target: Serine/threonine-protein kinase N2 (Homo sapiens) (UniProt Q16513); conditions: Compound concentration 1000.0 nM
[31] = molecular target: Protein kinase C iota type (Homo sapiens) (UniProt P41743); conditions: Compound concentration 1000.0 nM
[32] = molecular target: Serine/threonine-protein kinase D1 (Homo sapiens) (UniProt Q15139); conditions: Compound concentration 1000.0 nM
[33] = molecular target: RAF proto-oncogene serine/threonine-protein kinase (Homo sapiens) (UniProt P04049); conditions: Compound concentration 1000.0 nM
[34] = molecular target: Serine/threonine-protein kinase RIO2 (Homo sapiens) (UniProt Q9BVS4); conditions: Compound concentration 1000.0 nM
[35] = molecular target: Ribosomal protein S6 kinase alpha-4 (Homo sapiens) (UniProt O75676); conditions: Compound concentration 1000.0 nM
[36] = molecular target: Ribosomal protein S6 kinase alpha-5 (Homo sapiens) (UniProt O75582); conditions: Compound concentration 1000.0 nM
[37] = molecular target: Ribosomal protein S6 kinase alpha-6 (Homo sapiens) (UniProt Q9UK32); conditions: Compound concentration 1000.0 nM
[38] = molecular target: NUAK family SNF1-like kinase 2 (Homo sapiens) (UniProt Q9H093); conditions: Compound concentration 1000.0 nM
[39] = molecular target: Tyrosine-protein kinase SYK (Homo sapiens) (UniProt P43405); conditions: Compound concentration 1000.0 nM
[40] = molecular target: Serine/threonine-protein kinase tousled-like 2 (Homo sapiens) (UniProt Q86UE8); conditions: Compound concentration 1000.0 nM
[41] = molecular target: Non-receptor tyrosine-protein kinase TNK1 (Homo sapiens) (UniProt Q13470); conditions: Compound concentration 1000.0 nM
[42] = molecular target: Mu-type opioid receptor (Homo sapiens) (UniProt P35372); conditions: Compound concentration 10.0 uM
[43] = molecular target: Histamine H4 receptor (Homo sapiens) (UniProt Q9H3N8); conditions: Compound concentration 10.0 uM
[44] = molecular target: Alpha-1A adrenergic receptor (Homo sapiens) (UniProt P35348); conditions: Compound concentration 10.0 uM
[45] = molecular target: Alpha-2C adrenergic receptor (Homo sapiens) (UniProt P18825); conditions: Compound concentration 10.0 uM

Chain of Dual specificity tyrosine-phosphorylation-regulated kinase 1B (Homo sapiens) (Q9Y463 whole entry, looked up): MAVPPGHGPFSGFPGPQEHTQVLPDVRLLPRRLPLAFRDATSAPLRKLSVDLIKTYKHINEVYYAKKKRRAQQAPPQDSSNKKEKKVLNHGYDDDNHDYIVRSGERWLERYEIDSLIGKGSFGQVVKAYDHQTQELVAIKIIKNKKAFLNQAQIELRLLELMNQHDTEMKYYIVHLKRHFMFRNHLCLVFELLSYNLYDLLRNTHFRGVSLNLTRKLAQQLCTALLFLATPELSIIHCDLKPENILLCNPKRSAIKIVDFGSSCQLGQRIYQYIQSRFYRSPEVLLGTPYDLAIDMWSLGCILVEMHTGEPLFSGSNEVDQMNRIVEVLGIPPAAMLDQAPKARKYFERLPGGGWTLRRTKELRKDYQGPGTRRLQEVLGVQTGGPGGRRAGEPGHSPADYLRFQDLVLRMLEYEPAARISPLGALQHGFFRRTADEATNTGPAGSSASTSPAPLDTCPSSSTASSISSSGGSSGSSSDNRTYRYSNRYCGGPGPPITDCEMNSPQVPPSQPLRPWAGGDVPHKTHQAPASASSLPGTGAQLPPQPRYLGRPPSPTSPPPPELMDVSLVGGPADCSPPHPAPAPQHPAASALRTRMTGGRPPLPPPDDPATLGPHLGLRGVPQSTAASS
Chain of NUAK family SNF1-like kinase 2 (Homo sapiens) (Q9H093 whole entry): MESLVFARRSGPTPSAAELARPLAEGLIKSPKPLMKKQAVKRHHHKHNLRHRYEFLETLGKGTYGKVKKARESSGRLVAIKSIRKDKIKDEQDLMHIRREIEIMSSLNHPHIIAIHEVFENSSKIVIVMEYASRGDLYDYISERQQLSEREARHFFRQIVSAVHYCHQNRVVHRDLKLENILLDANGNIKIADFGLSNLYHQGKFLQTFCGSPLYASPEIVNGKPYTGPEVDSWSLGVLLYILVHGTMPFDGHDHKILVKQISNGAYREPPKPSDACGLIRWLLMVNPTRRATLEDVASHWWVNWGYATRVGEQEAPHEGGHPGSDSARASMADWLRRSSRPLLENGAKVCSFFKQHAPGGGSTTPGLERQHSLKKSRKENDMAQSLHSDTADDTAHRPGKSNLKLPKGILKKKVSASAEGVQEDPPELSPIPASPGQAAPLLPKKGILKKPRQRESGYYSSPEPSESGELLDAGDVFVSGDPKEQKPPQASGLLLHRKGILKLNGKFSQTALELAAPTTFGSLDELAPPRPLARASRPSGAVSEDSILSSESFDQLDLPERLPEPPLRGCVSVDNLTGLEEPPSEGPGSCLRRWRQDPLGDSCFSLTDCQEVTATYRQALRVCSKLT
Chain of Mast/stem cell growth factor receptor Kit (Homo sapiens), P10721 [L576P] (P10721 whole entry L576P): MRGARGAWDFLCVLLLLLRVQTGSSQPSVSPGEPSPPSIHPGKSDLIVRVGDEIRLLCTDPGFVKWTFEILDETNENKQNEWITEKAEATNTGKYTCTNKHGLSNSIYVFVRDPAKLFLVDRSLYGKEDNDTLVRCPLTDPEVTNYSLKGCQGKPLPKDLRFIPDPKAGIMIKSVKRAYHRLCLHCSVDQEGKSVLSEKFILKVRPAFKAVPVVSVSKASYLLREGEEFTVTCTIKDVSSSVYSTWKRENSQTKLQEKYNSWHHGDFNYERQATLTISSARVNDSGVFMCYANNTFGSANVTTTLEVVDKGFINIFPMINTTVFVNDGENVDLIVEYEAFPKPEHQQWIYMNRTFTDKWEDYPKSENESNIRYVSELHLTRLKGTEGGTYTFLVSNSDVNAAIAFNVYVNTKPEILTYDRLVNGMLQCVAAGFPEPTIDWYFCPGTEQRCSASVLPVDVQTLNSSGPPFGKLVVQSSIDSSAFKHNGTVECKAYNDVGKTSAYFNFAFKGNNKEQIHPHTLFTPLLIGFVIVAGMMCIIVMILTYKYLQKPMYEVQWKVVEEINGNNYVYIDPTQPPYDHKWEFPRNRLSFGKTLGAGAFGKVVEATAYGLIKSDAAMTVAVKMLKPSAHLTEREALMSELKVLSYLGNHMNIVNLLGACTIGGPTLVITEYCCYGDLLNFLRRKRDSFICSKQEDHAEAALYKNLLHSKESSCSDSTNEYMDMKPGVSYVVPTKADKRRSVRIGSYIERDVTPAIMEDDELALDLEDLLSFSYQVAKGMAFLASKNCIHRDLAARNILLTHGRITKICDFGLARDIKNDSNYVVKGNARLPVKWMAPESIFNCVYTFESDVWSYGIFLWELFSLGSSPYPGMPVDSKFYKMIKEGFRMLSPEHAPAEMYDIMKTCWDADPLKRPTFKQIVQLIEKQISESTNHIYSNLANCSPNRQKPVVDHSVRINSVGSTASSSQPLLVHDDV
Chain of Mu-type opioid receptor (Homo sapiens) (P35372 whole entry): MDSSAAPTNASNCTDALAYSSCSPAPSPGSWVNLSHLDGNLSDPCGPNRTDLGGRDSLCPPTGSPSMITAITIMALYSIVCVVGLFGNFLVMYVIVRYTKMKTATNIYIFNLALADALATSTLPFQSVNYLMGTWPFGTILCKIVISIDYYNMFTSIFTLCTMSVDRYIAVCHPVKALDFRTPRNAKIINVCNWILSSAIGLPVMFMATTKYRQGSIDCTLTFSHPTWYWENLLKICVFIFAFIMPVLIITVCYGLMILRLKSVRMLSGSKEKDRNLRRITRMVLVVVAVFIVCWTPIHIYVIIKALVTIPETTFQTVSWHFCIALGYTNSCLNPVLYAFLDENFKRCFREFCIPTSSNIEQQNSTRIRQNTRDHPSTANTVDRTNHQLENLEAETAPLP
Chain of Mitogen-activated protein kinase kinase kinase 3 (Homo sapiens) (Q99759 whole entry): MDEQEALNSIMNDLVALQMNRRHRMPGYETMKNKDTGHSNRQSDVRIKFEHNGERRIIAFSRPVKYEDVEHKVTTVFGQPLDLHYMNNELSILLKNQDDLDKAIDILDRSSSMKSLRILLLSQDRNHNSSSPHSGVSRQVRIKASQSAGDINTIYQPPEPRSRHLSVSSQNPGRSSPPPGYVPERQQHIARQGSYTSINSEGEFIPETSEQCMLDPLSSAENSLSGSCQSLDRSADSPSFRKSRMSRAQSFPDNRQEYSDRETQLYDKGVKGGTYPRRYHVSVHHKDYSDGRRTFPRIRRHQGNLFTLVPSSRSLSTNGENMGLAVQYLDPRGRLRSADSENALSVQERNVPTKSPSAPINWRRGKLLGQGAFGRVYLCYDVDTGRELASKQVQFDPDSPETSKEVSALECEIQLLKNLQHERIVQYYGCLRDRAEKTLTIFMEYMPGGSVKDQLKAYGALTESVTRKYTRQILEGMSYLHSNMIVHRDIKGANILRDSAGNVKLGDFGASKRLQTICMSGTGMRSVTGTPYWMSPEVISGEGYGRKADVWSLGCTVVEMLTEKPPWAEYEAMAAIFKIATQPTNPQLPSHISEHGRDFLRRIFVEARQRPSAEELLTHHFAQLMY
Chain of Calcium/calmodulin-dependent protein kinase type 1B (Homo sapiens) (Q6P2M8 whole entry): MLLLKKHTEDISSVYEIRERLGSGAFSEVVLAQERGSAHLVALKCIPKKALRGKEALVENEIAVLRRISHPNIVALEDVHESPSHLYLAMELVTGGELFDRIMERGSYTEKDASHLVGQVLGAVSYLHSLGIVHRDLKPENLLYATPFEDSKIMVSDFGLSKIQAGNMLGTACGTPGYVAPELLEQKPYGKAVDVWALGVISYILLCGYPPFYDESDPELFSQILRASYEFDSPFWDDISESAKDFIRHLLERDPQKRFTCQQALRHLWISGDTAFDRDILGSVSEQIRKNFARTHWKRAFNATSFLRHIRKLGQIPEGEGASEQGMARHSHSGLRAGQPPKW
Chain of Calcium/calmodulin-dependent protein kinase type 1 (Homo sapiens) (Q14012 whole entry, looked up): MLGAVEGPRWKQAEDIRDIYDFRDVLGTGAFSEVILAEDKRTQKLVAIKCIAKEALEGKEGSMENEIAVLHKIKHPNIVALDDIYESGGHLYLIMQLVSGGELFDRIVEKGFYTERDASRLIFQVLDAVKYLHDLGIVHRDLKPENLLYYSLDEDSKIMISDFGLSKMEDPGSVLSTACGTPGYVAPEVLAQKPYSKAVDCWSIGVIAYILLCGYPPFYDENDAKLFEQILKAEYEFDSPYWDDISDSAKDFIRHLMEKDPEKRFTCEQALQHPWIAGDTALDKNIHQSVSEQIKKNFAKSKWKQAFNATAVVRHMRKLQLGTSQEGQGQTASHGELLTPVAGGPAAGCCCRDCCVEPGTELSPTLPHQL
Chain of Mitogen-activated protein kinase 9 (Homo sapiens) (P45984 whole entry, looked up): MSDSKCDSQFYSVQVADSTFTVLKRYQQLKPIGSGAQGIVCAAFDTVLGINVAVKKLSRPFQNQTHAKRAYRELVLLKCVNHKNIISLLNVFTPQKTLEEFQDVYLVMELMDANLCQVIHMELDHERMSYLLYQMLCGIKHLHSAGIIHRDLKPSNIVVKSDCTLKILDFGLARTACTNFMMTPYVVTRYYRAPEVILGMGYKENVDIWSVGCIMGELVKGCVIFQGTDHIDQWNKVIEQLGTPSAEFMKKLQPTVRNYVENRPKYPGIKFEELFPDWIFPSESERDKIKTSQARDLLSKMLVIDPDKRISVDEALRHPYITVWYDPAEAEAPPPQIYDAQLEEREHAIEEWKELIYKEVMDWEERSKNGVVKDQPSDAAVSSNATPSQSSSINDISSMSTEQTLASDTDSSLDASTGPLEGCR
Chain of Protein kinase C iota type (Homo sapiens) (P41743 whole entry): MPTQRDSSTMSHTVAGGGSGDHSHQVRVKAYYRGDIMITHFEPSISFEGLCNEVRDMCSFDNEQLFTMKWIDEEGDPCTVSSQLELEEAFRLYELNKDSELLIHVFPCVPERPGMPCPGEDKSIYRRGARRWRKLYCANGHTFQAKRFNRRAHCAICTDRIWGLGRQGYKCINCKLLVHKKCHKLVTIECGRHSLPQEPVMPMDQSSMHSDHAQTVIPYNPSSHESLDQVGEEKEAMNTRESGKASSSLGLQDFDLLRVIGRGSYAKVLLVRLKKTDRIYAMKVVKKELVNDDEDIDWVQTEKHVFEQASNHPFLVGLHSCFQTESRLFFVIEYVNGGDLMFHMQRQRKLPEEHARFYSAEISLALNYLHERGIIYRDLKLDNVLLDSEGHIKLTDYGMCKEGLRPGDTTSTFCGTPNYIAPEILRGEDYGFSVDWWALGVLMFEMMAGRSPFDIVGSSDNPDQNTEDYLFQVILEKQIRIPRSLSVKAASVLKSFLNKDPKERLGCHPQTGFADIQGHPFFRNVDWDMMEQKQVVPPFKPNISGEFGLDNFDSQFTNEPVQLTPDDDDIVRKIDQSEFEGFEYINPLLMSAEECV

CO[C@@H](C)c1c(Nc2ccc([C@@H](N(C)C(=O)C3CCS(=O)(=O)CC3)C(F)(F)F)cc2)cnc2cc(Cl)nn12 [NVS-MALT1-C]
inactive: residual activity [1] 92% | residual activity [2] 81% | residual activity [3] 100% | residual activity [4] 82% | residual activity [5] 100% | residual activity [6] 100% | residual activity [7] 73% | residual activity [8] 89% | residual activity [9] 89% | residual activity [10] 75% | residual activity [11] 87% | residual activity [12] 91% | residual activity [13] 100% | residual activity [14] 100% | residual activity [15] 92% | residual activity [16] 100% | residual activity [17] 100% | residual activity [18] 76% | residual activity [19] 100% | residual activity [20] 82% | residual activity [21] 98% | residual activity [22] 100% | residual activity [23] 89% | residual activity [24] 85% | residual activity [25] 89% | residual activity [26] 88% | residual activity [27] 83% | residual activity [28] 100% | residual activity [29] 87% | residual activity [30] 88% | residual activity [31] 76% | residual activity [32] 100% | residual activity [33] 100% | residual activity [34] 89% | residual activity [35] 100% | residual activity [36] 70% | residual activity [37] 100% | residual activity [38] 100% | residual activity [39] 90% | residual activity [40] 100% | residual activity [41] 87% | inhibition [42] 6.39% | inhibition [43] -8.46% | inhibition [44] -3.44% | inhibition [45] 1.97%

CO[C@@H](C)c1c(Nc2ccc([C@H](N(C)C(=O)C3CCS(=O)(=O)CC3)C(F)(F)F)cc2)cnc2cc(Cl)nn12 [NVS-MALT1]
inactive: residual activity [1] 99% | residual activity [2] 84% | residual activity [3] 81% | residual activity [4] 66% | residual activity [5] 100% | residual activity [6] 100% | residual activity [7] 73% | residual activity [8] 95% | residual activity [9] 88% | residual activity [10] 78% | residual activity [11] 84% | residual activity [12] 91% | residual activity [13] 100% | residual activity [14] 100% | residual activity [15] 85% | residual activity [16] 100% | residual activity [17] 100% | residual activity [18] 92% | residual activity [19] 98% | residual activity [20] 86% | residual activity [21] 100% | residual activity [22] 73% | residual activity [23] 76% | residual activity [24] 79% | residual activity [25] 83% | residual activity [26] 83% | residual activity [27] 74% | residual activity [28] 100% | residual activity [29] 90% | residual activity [30] 100% | residual activity [31] 72% | residual activity [32] 100% | residual activity [33] 97% | residual activity [34] 90% | residual activity [35] 100% | residual activity [36] 88% | residual activity [37] 100% | residual activity [38] 100% | residual activity [39] 82% | residual activity [40] 92% | residual activity [41] 100% | inhibition [42] 6.13% | inhibition [43] 3.84% | inhibition [44] -7.59% | inhibition [45] 4.48%
